Activity calls are given as the source filed them. The rule behind the calls is not given here.

The test deals with Chaperone protein DnaK (Escherichia coli (strain K12)) (UniProt P0A6Y8). Put plainly: E. coli DnaK SBD ligand binding – biophysical, NMR, chaperone (AID 1033). Conditions: Purified DnaK SBD.
Chaperone protein DnaK (Escherichia coli (strain K12)), sequence (P0A6Y8 whole entry, looked up): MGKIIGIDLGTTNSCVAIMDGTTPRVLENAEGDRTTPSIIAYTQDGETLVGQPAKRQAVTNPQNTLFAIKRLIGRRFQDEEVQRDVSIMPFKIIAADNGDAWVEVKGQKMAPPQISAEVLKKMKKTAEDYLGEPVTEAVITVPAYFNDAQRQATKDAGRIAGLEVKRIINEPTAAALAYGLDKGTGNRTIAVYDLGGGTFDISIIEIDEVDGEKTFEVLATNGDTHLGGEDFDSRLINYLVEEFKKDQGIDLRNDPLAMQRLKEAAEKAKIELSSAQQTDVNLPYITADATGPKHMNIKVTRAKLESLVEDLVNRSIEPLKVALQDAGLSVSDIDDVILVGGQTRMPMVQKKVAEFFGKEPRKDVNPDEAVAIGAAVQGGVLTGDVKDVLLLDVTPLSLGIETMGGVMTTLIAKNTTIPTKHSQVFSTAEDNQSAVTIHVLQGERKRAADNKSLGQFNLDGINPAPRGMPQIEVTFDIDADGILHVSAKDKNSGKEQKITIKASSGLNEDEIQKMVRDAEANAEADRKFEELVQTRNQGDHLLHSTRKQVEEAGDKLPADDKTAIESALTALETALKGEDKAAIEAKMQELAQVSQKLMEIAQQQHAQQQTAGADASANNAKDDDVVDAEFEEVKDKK
The term Kd denotes the free concentration of one partner at which half of the binding sites on the other are occupied at equilibrium, for simple one-to-one binding. Regarding `C/C(=N\NC(N)=S)C(=O)O`, the Kd was > 4 mM (inactive). Next, `C/C=C(\C)c1nnc(NC(=O)c2ccco2)s1`: > 4 mM (inactive); `COc1ccc(NC(=O)/C=N/O)cc1`: > 4 mM (inactive); `Cc1cc2cc(N)ccc2[nH]1`: > 4 mM (inactive). Regarding `Cc1nn(C)c(N2CCOCC2)c1N`, the Kd was > 4 mM (inactive). As to `CC(=O)c1cccc(NC2=NCC(C)(C)S2)c1`, the Kd is > 4 mM (inactive). To `Cc1nnc(NCCO)[nH]c1=O` belongs > 4 mM (inactive); to `Oc1cc(O)c2c(c1)O[C@H](c1ccc(O)c(O)c1)[C@H](O)C2`, > 4 mM (inactive); to `c1ccc(CN2CCC3(CC2)Nc2ccccc2CO3)cc1`, > 4 mM (inactive). As to `O=C(c1ccco1)N1C(=O)c2cccc3cccc1c23`, the Kd is > 4 mM (inactive). To `COc1c(C(C)C)oc2cc3oc(=O)ccc3cc12` belongs > 4 mM (inactive). To `C=C(C)CSc1nc2nc(C)cc(C)n2n1` belongs > 4 mM (inactive); to `COc1ccccc1N1C(=N)SCC1=O`, > 4 mM (inactive).

For `CC(C)(O)[C@@H]1Cc2cc3ccc(=O)oc3cc2O1`, the Kd was > 4 mM (inactive).

On to `Cc1cc(C)n(C/C=C/Cn2nc(C)cc2C)n1`, for which the Kd is > 4 mM (inactive).

Consider `COc1cc2c(cc1OC)-c1nnnn1C(C)(C)C2`, for which the Kd is > 4 mM (inactive). For the compound `O=C(O)Cn1cc(C(=O)C2CC2)c2ccccc21`, the Kd was > 4 mM (inactive). Next, `Cc1ccc2nc(SCCC#N)nc(C)c2c1`: > 4 mM (inactive). Next, `Cc1c(C)n2c(SCC(N)=O)nnc2[nH]c1=O`: > 4 mM (inactive). To `CC(=O)O[C@H]1C[C@@H](OC(C)=O)C(C)(C)C2C[C@@H](OC(C)=O)[C@]3(C)C([C@H](OC(C)=O)C[C@@]4(C)[C@H](c5ccoc5)OC(=O)[C@H]5O[C@]543)[C@]21C` (stereo not given in full) belongs > 4 mM (inactive); to `COCC(=O)OCn1nnc2ccccc2c1=O`, > 4 mM (inactive). With `COc1cc2c(cc1OC)C(=O)OC2`, the Kd is > 4 mM (inactive). To `Clc1ccccc1-c1nc(-c2cccnc2)no1` belongs > 4 mM (inactive).

With `Nc1nc(SCc2ccc3c(c2)OCO3)n[nH]1`, the Kd is > 4 mM (inactive). Next, `CC(=O)Nc1cccc(-c2nnc3n2CC(C)S3)c1` (stereo not given): > 4 mM (inactive); `c1ccc(-n2nnnc2Oc2cccc3cccnc23)cc1`: > 4 mM (inactive); `CC1(C)C(=O)C=C[C@@]2(C)C1C[C@@H](O)[C@]1(C)C2CC[C@@]2(C)[C@H](c3ccoc3)OC(=O)[C@H]3O[C@]321` (stereo not given in full): > 4 mM (inactive). As to `O=C1C=C(O)c2ccccc2C1=O`, the Kd was > 4 mM (inactive).

As to `Cc1nc2ccc(C(=O)N3CCSCC3)cc2s1`, the Kd was > 4 mM (inactive). Next, `Cc1ccc(S(=O)(=O)CC(=O)N2CCCC2)cc1`: > 4 mM (inactive).

Take `O=S(=O)(NCc1ccco1)N1CCOCC1`: the Kd was > 4 mM (inactive). To `CC(=O)Oc1c(-c2ccccc2)oc2c(CC=C(C)C)c3c(c(OC(C)=O)c2c1=O)C=CC(C)(C)O3` belongs > 4 mM (inactive); to `O=C(O)CCNc1n[nH]c(=O)[nH]c1=O`, > 4 mM (inactive); to `Cc1cc(NC(=O)c2ccc3c(c2)OCCO3)no1`, > 4 mM (inactive).

Regarding `O=C(c1ccc(F)cc1)N1CCOCC1`, the Kd was > 4 mM (inactive). Next, `CCCCN1C(=O)C2CC/C(=N/O)CC2C1=O` (stereo not given): > 4 mM (inactive); `COc1c2ccoc2cc2oc(C)cc(=O)c12`: > 4 mM (inactive); `O=C(O)c1sccc1-n1cccc1`: > 4 mM (inactive). Turning to `O=C1C=CC2=C3c4cc(O)c(O)cc4CC3(O)COC2=C1O` (stereo not given), the Kd is > 4 mM (inactive). To `CC(=O)CNc1cc(CNC(C)=O)c(C)cc1C` belongs > 4 mM (inactive); to `O=C1c2ccccc2C(=O)c2c1ccc(O)c2O`, > 4 mM (inactive). To `CCOC(=O)C1CCN(Cc2ccccc2)CC1=O` (stereo not given) belongs > 4 mM (inactive); to `CC(=O)N/N=C(\C)c1cccc(N)c1`, > 4 mM (inactive); to `CCn1c(C)c(C(C)=O)c(N2CCN(C)CC2)nc1=S`, > 4 mM (inactive). Regarding `Cc1ccc(/C=C/C(=O)O)cc1S(=O)(=O)NCCO`, the Kd was > 4 mM (inactive).

On to `Cc1nc(-c2cccc(N)c2)cs1`, for which the Kd was > 4 mM (inactive).

As for `CCc1c(C(=O)Nc2ccncc2)csc1C`, the Kd was > 4 mM (inactive).

With `COc1ccccc1-c1n[nH]c(=O)o1`, the Kd was > 4 mM (inactive). Regarding `Cn1nc(C(=O)N2CCOCC2)c2ccccc2c1=O`, the Kd was > 4 mM (inactive). To `COC(=O)c1c(C)cc(OC(=O)c2c(C)cc(O)c(C=O)c2O)c(C)c1O` belongs > 4 mM (inactive); to `CC(=O)N=c1cccc(NC(C)=O)n1O`, > 4 mM (inactive); to `CC(=O)c1cccc(N=C2NC(=O)CS2)c1`, > 4 mM (inactive). Next, `COc1ccccc1Nc1nncc(=O)[nH]1`: > 4 mM (inactive).

In the case of `CC1=CC(C)C(C(=O)O)C(C(=O)N2CCN(C)CC2)C1` (stereo not given), the Kd was > 4 mM (inactive). To `O=C(O)Cn1nnn(-c2ccccc2)c1=S` belongs > 4 mM (inactive). To `Nc1c(S(=O)(=O)c2ccccc2)csc1C(=O)O` belongs > 4 mM (inactive); to `CSc1ccc(C2NC(=O)CCC2[N+](=O)[O-])cc1` (stereo not given), > 4 mM (inactive); to `Oc1cc2c(cc1O)C1c3ccc(O)c(O)c3OCC1(O)C2` (stereo not given), > 4 mM (inactive). To `CC(=O)O[C@]1(C)CC[C@@]23CC1C(C)(C)[C@@H]2CC[C@H]3C` belongs > 4 mM (inactive); to `Cc1cc(=O)cc(C)n1NC(N)=S`, > 4 mM (inactive); to `O=C(NC(=S)NC1CCSC1=O)c1ccco1` (stereo not given), > 4 mM (inactive). For `Cc1cc2cc3c(C)cc(=O)oc3c(C)c2o1`, the Kd was > 4 mM (inactive). For the compound `c1cncc(Nc2nc(-c3cccnc3)cs2)c1`, the Kd is > 4 mM (inactive). To `O=S1(=O)C=CC(N2CCCCC2)C1` (stereo not given) belongs > 4 mM (inactive); to `NC(=O)CSCc1c(Cl)cccc1Cl`, > 4 mM (inactive); to `CC(=O)c1cccc(NS(=O)(=O)N2CCCCC2)c1`, > 4 mM (inactive).

Regarding `O=C(NCc1ccccn1)c1ccc(Br)s1`, the Kd is > 4 mM (inactive). Next, `Cn1nnc2cc(C(=O)O)ccc21`: > 4 mM (inactive). To `O=C1CSC(=O)N1CNc1ccccc1` belongs > 4 mM (inactive); to `O=C(NCc1ccncc1)c1cccc(F)c1`, > 4 mM (inactive).

On to `O=C(Nc1nccs1)c1cccnc1`, for which the Kd was > 4 mM (inactive). As to `Cc1ccc2cc(C(=O)O)ccc2n1`, the Kd was > 4 mM (inactive). To `Cc1cc(S(=O)(=O)N2CCOCC2)ccc1F` belongs > 4 mM (inactive); to `O=C(/C=C/c1ccc(O)cc1)c1ccc(O)cc1O`, > 4 mM (inactive).

With `Nc1ccc(F)cc1F`, the Kd was > 4 mM (inactive).

For the compound `CC(C)CCCC(C)[C@H]1CCC2C3CC=C4CC(=O)CC[C@]4(C)C3CC[C@@]21C` (stereo not given in full), the Kd is > 4 mM (inactive). To `Cc1ccc(F)cc1NC(=O)c1ccc2c(c1)OCO2` belongs > 4 mM (inactive); to `OC1(c2ccc(Cl)cc2)CCNCC1`, > 4 mM (inactive); to `NCCc1ccc(S(N)(=O)=O)cc1`, > 4 mM (inactive). As to `Cc1cc(C)nc(N2CC(=O)N(C)C2=N)n1`, the Kd is > 4 mM (inactive).

Regarding `COc1ccccc1NC(=O)C1CCC(=O)N1` (stereo not given), the Kd was > 4 mM (inactive). Next, `CCOC(=O)CNC(=O)CSc1nnc(C)c(=O)[nH]1`: > 4 mM (inactive); `Cc1cc(=O)c2ccccc2n1CC(N)=O`: > 4 mM (inactive).

As for `O=C(NCCO)c1cc2ccccc2cc1O`, the Kd is > 4 mM (inactive).

As for `COC(=O)C1CCc2ccccc2N1` (stereo not given), the Kd was > 4 mM (inactive). For `Nc1cccc(NC(=O)c2cccs2)c1`, the Kd is > 4 mM (inactive). As for `O=C(Oc1ccc2c(c1)OCC2=O)c1ccccc1`, the Kd was > 4 mM (inactive). To `OCc1ccccc1CN1CCOCC1` belongs > 4 mM (inactive). Next, `CCC(=O)Nc1ccc(-c2nn3c(C)nnc3s2)cc1`: > 4 mM (inactive); `CC(=O)c1ccc(NC(=S)N2CCC(O)CC2)cc1`: > 4 mM (inactive); `Nc1nc(-c2ccc(Cl)cc2)nn1C(=O)c1cccnc1`: > 4 mM (inactive).

On to `NCc1nc2ccccc2s1`, for which the Kd is > 4 mM (inactive). Next, `CCCn1c(S(=O)(=O)O)nc2ccccc21`: > 4 mM (inactive).

Turning to `Cc1nc2cc(Cl)ccc2n1CCO`, the Kd is > 4 mM (inactive). Take `Cc1cccc(NC(=O)NC(N)=O)c1`: the Kd was > 4 mM (inactive).

On to `Cc1cc(C(=O)NCc2ccccc2Br)no1`, for which the Kd is > 4 mM (inactive). Next, `Nc1cccc(F)c1-c1ncon1`: > 4 mM (inactive); `O=C1C2C3C=CC(C3)C2C(=O)N1c1ccccn1` (stereo not given): > 4 mM (inactive). Next, `[O-][n+]1onc2c1CCc1c-2nn(-c2ccccc2)[n+]1[O-]`: > 4 mM (inactive); `N#Cc1nc(N2CCCCC2)nc(N2CCOCC2)n1`: > 4 mM (inactive); `Nc1c2c3c(sc2nc(=O)n1N)CCCC3`: > 4 mM (inactive). Next, `Cc1cc(C(=O)N2CCN(c3ccccn3)CC2)no1`: > 4 mM (inactive); `O=C1CCCCCN1CO`: > 4 mM (inactive); `COCC(=O)N1CCCc2ccccc21`: > 4 mM (inactive). In the case of `COc1ccc2c(c1OC)C(=O)N(c1ncn[nH]1)C2`, the Kd was > 4 mM (inactive).
